Laboratory results taken from publication PMC4957513, “Functional Characterization of a Hexose Transporter from Root Endophyte Piriformospora indica” (Frontiers in Microbiology, 2016).

Legend:
[1] = target: T1, PiHXT5 (Serendipita indica, UniProt G4TIR7); assay: competition of […]-glucose uptake in yeast EBY.VW4000; type: cell-based; settings: 25 μM 14C-glucose, five-fold excess of unlabelled sugar, 1 min, 30 °C; intact cells
T1 construct: gene PIIN_05137

[2] = target: T1, PiHXT5; assay: […]-glucose uptake in yeast EBY.VW4000, Michaelis-Menten fit; type: cell-based; settings: pH 6.5, 50 mM potassium phosphate, 0.6 M sorbitol; intact cells; labelled compound; H+ symport; read-out: apparent Km

T1 sequence (G4TIR7 entry or part of it): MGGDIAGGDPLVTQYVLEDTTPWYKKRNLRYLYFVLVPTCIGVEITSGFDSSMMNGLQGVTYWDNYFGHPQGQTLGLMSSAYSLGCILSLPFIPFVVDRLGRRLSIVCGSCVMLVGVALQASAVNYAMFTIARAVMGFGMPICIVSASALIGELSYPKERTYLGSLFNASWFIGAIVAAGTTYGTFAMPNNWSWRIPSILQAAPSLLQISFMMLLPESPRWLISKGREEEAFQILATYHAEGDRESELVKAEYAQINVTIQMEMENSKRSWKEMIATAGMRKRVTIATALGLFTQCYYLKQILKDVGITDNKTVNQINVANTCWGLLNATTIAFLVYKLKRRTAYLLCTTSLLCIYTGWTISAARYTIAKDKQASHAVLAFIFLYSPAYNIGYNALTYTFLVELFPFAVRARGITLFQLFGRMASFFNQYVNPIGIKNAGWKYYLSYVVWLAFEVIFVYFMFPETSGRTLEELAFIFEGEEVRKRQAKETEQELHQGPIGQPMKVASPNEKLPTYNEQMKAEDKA

Km [2] [µM] | Compound | % of control 14C-glucose uptake at five-fold excess [1]
 | OCC1(O)OC[C@@H](O)[C@@H](O)[C@@H]1O (stereo partly drawn) [D-fructose] | PiHXT5 is able to transport Glc, Fru, Xyl, Man, and Gal with decreasing affinity
 | OC[C@H]1OC(O)[C@H](O)[C@@H](O)[C@H]1O (stereo partly drawn) [D-galactose] | PiHXT5 is able to transport Glc, Fru, Xyl, Man, and Gal with decreasing affinity
2560 ± 180 | OC[C@H]1OC(O)[C@H](O)[C@@H](O)[C@@H]1O (stereo partly drawn) [D-glucose] | 
 | OC[C@H]1OC(O)[C@@H](O)[C@@H](O)[C@@H]1O (stereo partly drawn) [D-mannose] | PiHXT5 is able to transport Glc, Fru, Xyl, Man, and Gal with decreasing affinity
 | OC1OC[C@@H](O)[C@H](O)[C@H]1O (stereo partly drawn) [D-xylose] | PiHXT5 is able to transport Glc, Fru, Xyl, Man, and Gal with decreasing affinity
